Assay results: PMC12150326 (The Journal of Organic Chemistry, 2025)
Like-named read-outs stand apart in the source and are kept apart here.

Key:
Type in all cases: cell-based, human
786-0 = test system: 786-0
How it was run: (§1)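 TGI-based COMPARE analysis set the response profiles against historical NCI-60 data for established antitubulin compounds, after testing at five log-spaced doses (0.01–100 μM) in the 60-line screen.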

A498 = test system: A498
How it was run: as §1

ACHN = test system: ACHN
How it was run: (§2)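 Screening via NCI-60, five log concentrations from 0.01 to 100 μM; TGI compared by COMPARE with reference tubulin agents.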

BT-549 = test system: BT-549
How it was run: as §1

CAKI-1 = test system: CAKI-1
How it was run: as §1

HCT-116 = test system: HCT-116
How it was run: as §1

HL-60(TB) = test system: HL-60(TB)
How it was run: (§3)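 First, compounds went into the NCI-60 cell panel. Next, they were dosed at 0.01, 0.1, 1, 10 and 100 μM. Finally, TGI levels fed a COMPARE analysis against prior tubulin-inhibitor data.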

HOP-92 = test system: HOP-92
How it was run: as §1

HT29 = test system: HT29
How it was run: as §1

K-562 = test system: K-562
How it was run: as §1

LOX IMVI = test system: LOX IMVI
How it was run: as §2

MALME-3M = test system: MALME-3M
How it was run: as §1

MCF7 = test system: MCF7
How it was run: as §1

MOLT-4 = test system: MOLT-4
How it was run: as §1

NCI 60 cell lines = test system: NCI 60 cell lines
How it was run: as §1

NCI-H23 = test system: NCI-H23
How it was run: as §1

NCI-H460 = test system: NCI-H460
How it was run: as §1

NCI/ADR-RES = test system: NCI/ADR-RES
How it was run: as §1

OVCAR-8 = test system: OVCAR-8
How it was run: as §1

PC-3 = test system: PC-3
How it was run: as §2

SK-MEL-28 = test system: SK-MEL-28
How it was run: as §1

SK-MEL-5 = test system: SK-MEL-5
How it was run: as §1

SN12C = test system: SN12C
How it was run: as §1

SNB-19 = test system: SNB-19
How it was run: as §2

SR = test system: SR
How it was run: as §3

T-47D = test system: T-47D
How it was run: as §1

TK-10 = test system: TK-10
How it was run: as §2

SMILES: COc1cc(C)c(-c2ccc(=O)c(OC)cc2C)c(OC)c1OC (single isomer, unassigned) [(aS)-iso-6]
- Log10GI50 (786-0): -4.33 Molar
- Log10LC50 (786-0): > -4.00 Molar
- Log10TGI (786-0): > -4.00 Molar
- GI50 (786-0; Homo sapiens): 46.8 µM
- Log10GI50 (786-0; […]): -4.33 Molar
- Log10GI50 (A498): -4.85 Molar
- Log10LC50 (A498): > -4.00 Molar
- Log10TGI (A498): -4.28 Molar
- GI50 (A498; Homo sapiens): 14.1 µM
- Log10GI50 (A498; […]): -4.85 Molar
- Log10GI50 (ACHN): -4.07 Molar
- Log10LC50 (ACHN): > -4.00 Molar
- Log10TGI (ACHN): > -4.00 Molar
- GI50 (ACHN; Homo sapiens): 85.1 µM
- Log10GI50 (ACHN; […]): -4.07 Molar
- Log10GI50 (BT-549): -4.82 Molar
- Log10LC50 (BT-549): > -4.00 Molar
- Log10TGI (BT-549): > -4.00 Molar
- GI50 (BT-549; Homo sapiens): 15.1 µM
- Log10GI50 (BT-549; […]): -4.82 Molar
- Log10GI50 (CAKI-1): -4.71 Molar
- Log10LC50 (CAKI-1): > -4.00 Molar
- Log10TGI (CAKI-1): > -4.00 Molar
- GI50 (CAKI-1; Homo sapiens): 19.5 µM
- Log10GI50 (CAKI-1; […]): -4.71 Molar
- Log10GI50 (HCT-116): -4.60 Molar
- Log10LC50 (HCT-116): > -4.00 Molar
- Log10TGI (HCT-116): > -4.00 Molar
- GI50 (HCT-116; Homo sapiens): 25.1 µM
- Log10GI50 (HCT-116; […]): -4.6 Molar
- Log10GI50 (HL-60(TB)): -4.68 Molar
- Log10LC50 (HL-60(TB)): > -4.00 Molar
- Log10TGI (HL-60(TB)): -4.02 Molar
- GI50 (HL-60(TB); Homo sapiens): 20.9 µM
- Log10GI50 (HL-60(TB); […]): -4.68 Molar
- Log10GI50 (HOP-92): -4.99 Molar
- Log10LC50 (HOP-92): > -4.00 Molar
- Log10TGI (HOP-92): > -4.00 Molar
- GI50 (HOP-92; Homo sapiens): 10.2 µM
- Log10GI50 (HOP-92; […]): -4.99 Molar
- Log10GI50 (HT29): -4.60 Molar
- Log10LC50 (HT29): > -4.00 Molar
- Log10TGI (HT29): -4.03 Molar
- GI50 (HT29; Homo sapiens, HT-29): 25.1 µM
- Log10GI50 (HT29; […]): -4.6 Molar
- Log10GI50 (K-562): -5.30 Molar
- Log10LC50 (K-562): > -4.00 Molar
- Log10TGI (K-562): > -4.00 Molar
- GI50 (K-562; Homo sapiens, K562): 5.01 µM
- Log10GI50 (K-562; […]): -5.3 Molar
- Log10GI50 (LOX IMVI): -5.18 Molar
- Log10LC50 (LOX IMVI): > -4.00 Molar
- Log10TGI (LOX IMVI): > -4.00 Molar
- GI50 (LOX IMVI; Homo sapiens): 6.61 µM
- Log10GI50 (LOX IMVI; […]): -5.18 Molar
- Log10GI50 (MALME-3M): -4.42 Molar
- Log10LC50 (MALME-3M): > -4.00 Molar
- Log10TGI (MALME-3M): > -4.00 Molar
- Log10GI50 (MCF7): -4.60 Molar
- Log10LC50 (MCF7): > -4.00 Molar
- Log10TGI (MCF7): > -4.00 Molar
- GI50 (MCF7; Homo sapiens): 25.1 µM
- Log10GI50 (MCF7; […]): -4.6 Molar
- Log10GI50 (MOLT-4): -4.44 Molar
- Log10LC50 (MOLT-4): > -4.00 Molar
- Log10TGI (MOLT-4): > -4.00 Molar
- GI50 (MOLT-4; Homo sapiens): 36.3 µM
- Log10GI50 (MOLT-4; […]): -4.44 Molar
- fold less potent than (aR)-6 in NCI-60 screen (NCI 60 cell lines): approximately 10 fold
- selectivity range (NCI 60 cell lines; NCI-60, GI50 level): 1.46 log units
- Log10 Range at TGI (NCI 60 cell lines; NCI-60 cell line selectivity): 0.81
- GI50 (NCI 60 cell lines; NCI-60 mean): 27 µM
- Mean TGI (NCI 60 cell lines; NCI-60 mean total growth inhibition): 91 µM
- Delta Log10GI50 (NCI 60 cell lines; mean graph): 0.89
- Delta Log10LC50 (NCI 60 cell lines; mean graph): 0
- Delta Log10TGI (NCI 60 cell lines; mean graph): 0.77
- Range Log10GI50 (NCI 60 cell lines; mean graph): 1.46
- Range Log10LC50 (NCI 60 cell lines; mean graph): 0.0
- Range Log10TGI (NCI 60 cell lines; mean graph): 0.81
- _MID Log10GI50 (NCI 60 cell lines; mean graph midpoint): -4.57 Molar
- _MID Log10LC50 (NCI 60 cell lines; mean graph midpoint): -4.0 Molar
- _MID Log10TGI (NCI 60 cell lines; mean graph midpoint): -4.04 Molar
- Log10GI50 (NCI-H23): -4.33 Molar
- Log10LC50 (NCI-H23): > -4.00 Molar
- Log10TGI (NCI-H23): > -4.00 Molar
- GI50 (NCI-H23; Homo sapiens): 46.8 µM
- Log10GI50 (NCI-H23; […]): -4.33 Molar
- Log10GI50 (NCI-H460): -4.50 Molar
- Log10LC50 (NCI-H460): > -4.00 Molar
- Log10TGI (NCI-H460): > -4.00 Molar
- GI50 (NCI-H460; Homo sapiens): 31.6 µM
- Log10GI50 (NCI-H460; […]): -4.5 Molar
- Log10GI50 (NCI/ADR-RES): -4.55 Molar
- Log10LC50 (NCI/ADR-RES): > -4.00 Molar
- Log10TGI (NCI/ADR-RES): > -4.00 Molar
- GI50 (NCI/ADR-RES; Homo sapiens): 28.2 µM
- Log10GI50 (NCI/ADR-RES; […]): -4.55 Molar
- Log10GI50 (OVCAR-8): -4.45 Molar
- Log10LC50 (OVCAR-8): > -4.00 Molar
- Log10TGI (OVCAR-8): > -4.00 Molar
- GI50 (OVCAR-8; Homo sapiens): 35.5 µM
- Log10GI50 (OVCAR-8; […]): -4.45 Molar
- Log10GI50 (PC-3): -4.50 Molar
- Log10LC50 (PC-3): > -4.00 Molar
- Log10TGI (PC-3): > -4.00 Molar
- GI50 (PC-3; Homo sapiens): 31.6 µM
- Log10GI50 (PC-3; […]): -4.5 Molar
- Log10GI50 (SK-MEL-28): > -4.00 Molar
- Log10LC50 (SK-MEL-28): > -4.00 Molar
- Log10TGI (SK-MEL-28): > -4.00 Molar
- Log10GI50 (SK-MEL-5): -4.34 Molar
- Log10LC50 (SK-MEL-5): > -4.00 Molar
- Log10TGI (SK-MEL-5): > -4.00 Molar
- GI50 (SK-MEL-5; Homo sapiens): 45.7 µM
- Log10GI50 (SK-MEL-5; […]): -4.34 Molar
- Log10GI50 (SN12C): -4.42 Molar
- Log10LC50 (SN12C): > -4.00 Molar
- Log10TGI (SN12C): > -4.00 Molar
- GI50 (SN12C; Homo sapiens): 38 µM
- Log10GI50 (SN12C; […]): -4.42 Molar
- Log10GI50 (SNB-19): -4.53 Molar
- Log10LC50 (SNB-19): > -4.00 Molar
- Log10TGI (SNB-19): > -4.00 Molar
- GI50 (SNB-19; Homo sapiens): 5.37 µM
- Log10GI50 (SNB-19; […]): -5.27 Molar
- Log10GI50 (SR): -5.24 Molar
- Log10LC50 (SR): > -4.00 Molar
- Log10TGI (SR): > -4.00 Molar
- GI50 (SR; Homo sapiens): 5.75 µM
- Log10GI50 (SR; […]): -5.24 Molar
- Log10GI50 (T-47D): -4.58 Molar
- Log10LC50 (T-47D): > -4.00 Molar
- Log10TGI (T-47D): > -4.00 Molar
- GI50 (T-47D; Homo sapiens, T47D): 26.3 µM
- Log10GI50 (T-47D; […]): -4.58 Molar
- Log10GI50 (TK-10): > -4.00 Molar
- Log10LC50 (TK-10): > -4.00 Molar
- Log10TGI (TK-10): > -4.00 Molar
- GI50 (TK-10; Homo sapiens): > 100 µM
- Log10GI50 (TK-10; […]): > -4 Molar
